In ChEMBL document CHEMBL1128157, “Stereochemical differentiation of anticonvulsant and antihypertensive effects in 4-(fluorobenzoylamino)-benzopyrans” (1995):

Each compound was assayed on Mus musculus (assay: Dose required to produce a 50% elevation in seizure threshold after oral administration). Conditions: not given.
Format: functional

`NC(=O)N1c2ccccc2C=Cc2ccccc21` [CARBAMAZEPINE] and `CCC1(c2ccccc2)C(=O)NC(=O)NC1=O` [PHENOBARBITAL] are within 1.5-fold of each other in ED50: 12.7 mg/kg for the first, 10.6 mg/kg for the second.

What follows are compounds tested on Mus musculus (assay: Change in threshold voltage (applied via a subcutaneous and a buccal electrode) for inducing tonic hind limb extension seizures in 50% (CV50) in mouse MEST model at a dose of 10 mg/kg intraperitoneally 30 min pretest). Conditions: not given.
Format: functional, Hindlimb

Compound `CC1(C)Oc2ccc(C#N)cc2C(N2CCCC2=O)C1O` (racemic) [CROMAKALIM] has a Change of -16%.

Each compound was assayed on Mus musculus (assay: Change in threshold voltage (applied via a subcutaneous and a buccal electrode) for inducing tonic hind limb extension seizures in 50% (CV50) in mouse MEST model at a dose of 10 mg/kg orally). Conditions: route oral.
Format: functional, Hindlimb

Going from `CC1(C)Oc2ccc(C(F)(F)F)cc2C(NC(=O)c2ccc(F)cc2)[C@@H]1O` (stereo partly specified) to `CC1(C)Oc2ccncc2C(NC(=O)c2ccc(F)cc2)[C@@H]1O` (stereo partly specified), the Change falls from 33% to 5%.

For `CC1(C)Oc2ccc(C#N)cc2C(N2CCCC2=O)C1O` (racemic) [CROMAKALIM], the Change was 4%.

Each compound was assayed on Mus musculus (assay: Change in threshold voltage (applied via a subcutaneous and a buccal electrode) for inducing tonic hind limb extension seizures in 50% (CV50) in mouse MEST model at a dose of 30 mg/kg orally). Conditions: route oral.
Format: functional, Hindlimb

First: CC1(C)Oc2ccc(-c3ccccc3)cc2C(NC(=O)c2ccc(F)cc2)[C@@H]1O (stereo partly specified)
Second: CC1(C)Oc2ccccc2C(NC(=O)c2ccc(F)cc2)[C@@H]1O (stereo partly specified)
The Change of the first is higher: 20% for the first, 13% for the second.

Compared with `CN(C(=O)c1ccc(F)cc1)C1c2cc(C#N)ccc2OC(C)(C)[C@H]1O` (stereo partly specified), `CC1(C)Oc2ccc(C#N)cc2C(NC(=O)c2ccc(O)cc2)[C@@H]1O` (stereo partly specified) is lower in Change: 26% for the first, -2% for the second.

First: CC1(C)Oc2ccc(C#N)cc2C(NC(=O)c2ccc(C#N)cc2)[C@@H]1O (stereo partly specified)
Second: COc1ccc2c(c1)C(NC(=O)c1ccc(F)cc1)[C@H](O)C(C)(C)O2 (stereo partly specified)
The Change of the first is lower: 7% for the first, 28% for the second.

`CC(C)c1ccc2c(c1)C(NC(=O)c1ccc(F)cc1)[C@H](O)C(C)(C)O2` (stereo partly specified) gave a Change of 19%.

Each compound was assayed on Mus musculus (assay: Increase in threshold voltage (applied via a subcutaneous and a buccal electrode) for inducing tonic hind limb extension seizures in 50% (CV50) in mouse MEST model at a dose of 10 mg/kg orally). Conditions: route oral.
Format: functional, Hindlimb

First: CC1(C)Oc2ccc(C#N)cc2[C@H](NC(=O)c2ccc(F)cc2)[C@H]1O
Second: CC1(C)Oc2ccc(C#N)cc2[C@@H](NC(=O)c2ccc(F)cc2)[C@@H]1O
The Change of the first is higher: 41% for the first, 17% for the second.

Compared with `CC1(C)Oc2ccc(C#N)cc2C(NC(=O)c2ccccc2)[C@@H]1O` (stereo partly specified), `CC1(C)Oc2ccc(C#N)cc2[C@H](NC(=O)c2cccc(F)c2)[C@H]1O` is higher in Change: 29% for the first, 50% for the second.

Going from `CC1(C)Oc2ccc(C#N)cc2[C@@H](NC(=O)c2cccc(F)c2)[C@@H]1O` to `CC1(C)Oc2ccc(C#N)cc2C(NC(=O)c2ccc(F)cc2)[C@@H]1O` (stereo partly specified), the Change rises from 12% to 49%.

Compared with `CC(C)(C)c1ccc2c(c1)C(N1CCCC1=O)[C@H](O)C(C)(C)O2` (stereo partly specified), `CC1(C)C=C(N2CCCC2=O)c2cc(C#N)ccc2O1` is lower in Change: 12% for the first, 4% for the second.
